Data taken from patent publication US11397186B2, “Methods for covalently binding a cell surface protein and a ligand” (UNIVERSITEIT GENT, priority 2016, dated 2022).
Non-standard residues stand in square brackets, D forms with d. Residues, ends and D or L forms follow the SMILES beside them. Ala(2-furyl) = N[C@@H](Cc1ccco1)C(=O)O

Molecular target: T1, μ-opioid receptor (MOR) (Homo sapiens, UniProt P35372)
T1 construct: expressed in transfected cells; host or cells: CHO-hOR cells (CHO cells expressing the human opioid receptor)
Test: Opioid receptor radio-ligand binding assay (CHO-hOR cells)
Conditions: based on Table 1
Procedure: Next, the synthesised peptides were subjected to biological activity testing, to know whether they still bind to the opioid receptor. If so, it is tested to which opioid receptor subtype they bind. It is also investigated whether the opioid peptides behave as agonist or antagonist. The following assays are performed: radio-ligand binding assay, ^35S GTP binding assay, and tissue experiments, including guinea pig ileum (GPI) and mouse vas deferens (MVD) tests.

T1 sequence (P35372 whole entry): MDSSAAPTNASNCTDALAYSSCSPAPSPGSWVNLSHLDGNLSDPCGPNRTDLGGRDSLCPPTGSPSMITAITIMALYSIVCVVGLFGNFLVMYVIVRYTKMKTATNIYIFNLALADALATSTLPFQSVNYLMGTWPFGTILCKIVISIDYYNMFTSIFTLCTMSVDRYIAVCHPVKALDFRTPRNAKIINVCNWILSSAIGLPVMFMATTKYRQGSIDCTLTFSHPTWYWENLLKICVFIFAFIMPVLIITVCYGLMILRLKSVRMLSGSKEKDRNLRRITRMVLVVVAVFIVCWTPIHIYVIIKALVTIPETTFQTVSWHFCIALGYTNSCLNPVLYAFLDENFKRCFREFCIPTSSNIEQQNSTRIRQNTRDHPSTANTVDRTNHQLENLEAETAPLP

In the case of N=C(N)NCCC[C@@H](NC(=O)[C@@H](N)Cc1ccc(O)cc1)C(=O)N[C@@H](Cc1ccco1)C(=O)N[C@@H](Cc1ccccc1)C(N)=O [FUA3] (H-Y[dR][Ala(2-furyl)]F-NH2; N-terminus and C-terminus assumed), the “binding to the opioid receptor, assessment in words” value was “acceptable”.
